This is an account of results in patent US11214556B1, “Method of treating colorectal cancer” (King Abdulaziz University, priority 2019, dated 2022).

“Also recorded” adds a separate entry of the source.

In one data set the test system is Swiss albino mice. Nature of the data set: Acute oral toxicity (LD50), OECD guideline 423. Type of data set: in vivo. Conditions: both, Swiss albino, mouse, in vivo, po, 24 h. The text has this: (§1) Since compounds with electrophilic properties, e.g., MA are usually involved in a variety of toxic effects on mammalians, the general acute toxicity of 1512, 3712 and 4112 was investigated by determining the in vivo lethal dose (LD50) according to the Globally Harmonized Classification System (GHS) and following the Organization for Economic Cooperation and Development (OECD) guideline 423 (modified, adopted Mar. 23, 2006). As observed in the cellular assay, the compound safety was confirmed, as the LD50 for all compounds were between 2000-5000 mg/kg (Category 5). See Spielmann, H.; Genschow, E.; Liebsch, M.; Halle, W., Determination of the starting dose for acute oral toxicity (LD50) testing in the up and down procedure (UDP) from cytotoxicity data. ATLA 1999, 27 (6), 957-966, incorporated herein by reference in its entirety.
(§2) The experiment was conducted on 12 healthy Swiss albino mice (males and females) weighing 22-27 g and aged 8 to 10 weeks obtained from the Animal Station, Pharmacology Dept, Faculty of Pharmacy, King Abdulaziz University, Jeddah. See Shoieb, S. M.; Esmat, A.; Khalifa, A. E.; Abdel-Naim, A. B., Chrysin attenuates testosterone-induced benign prostate hyperplasia in rats. Food and Chemical Toxicology 2018, 111, 650-659, incorporated herein by reference in its entirety. All animals were kept at the regulated temperature (average 23° C.), air quality (Central air conditioning) and light (12-h light/dark cycles). Animals were provided free access to food pellets ad libitum and water. The experimental procedure was approved by the Research Ethics Committee, Faculty of Pharmacy, King Abdulaziz University prior to starting the laboratory work. Animals were humanely treated according to international and scientific principles. Changes other than vitality of the animals such as behavioral and food consumption habits were not observed in this study.
(§3) The compounds 1512, 3712 and 4112 of purity 95% or more (LC/MS) were prepared for this study as 10% suspension in water containing 0.5% tween 80.
(§4) The animals were distributed randomly into four groups (3 mice at each group). […] The second group received an oral dose of 2000 mg/Kg of the drug and observed after 24 h to count the deceased animals. According to the Guideline 423, when all animals were found alive, the same test was repeated (dose 2000 mg/kg) were given to the third group (3 animals) and observed for 24 h. All animals survived and therefore, a dose of 5000 mg/kg were administered to the fourth and final group.

Data set [1] is described as follows: Acute oral toxicity (LD50), OECD guideline 423. Format: in vivo. Conditions: both sexes, Swiss albino, mouse, in vivo, po.
Description: as §1, §2, §3, §4

Data set [2] deals with HCT-116 cells. Nature of the data set: Nuclear fragmentation by DAPI staining. Format: cell-based, human. Conditions: 32 μM (IC50 concentration), 48 hours. On the procedure:
Several assays were performed to determine the apoptotic effect of the early lead MOS-1512 as well as the potent derivative MOS-4112 on HCT-116 cells. […] See Drutovic, D.; Chripkova, M.; Pilatova, M.; Kruzliak, P.; Perjesi, P.; Sarissky, M.; Lupi, M.; Damia, G.; Broggini, M.; Mojzis, J., Benzylidenetetralones, cyclic chalcone analogues, induce cell cycle arrest and apoptosis in HCT116 colorectal cancer cells. Tumour Biol 2014, 35 (10), 9967-75, incorporated herein by reference in its entirety.
Cells were cultured on sterile 22 mm^2 cover slips (Harvard Apparatus, MA, USA) in sterile six well plates at a density of 2×10^5 cells/well. […] The fixed and permeabilized cells nuclei were denatured with 2 N HCl (300 μl) for 10 min, washed three times more, and treated with 0.1 μg/ml 4′,6′-diamidino-2-phenylindole, dihydrochloride (DAPI) (Sigma-Aldrich, St. Louis, Mo., USA) (1:1000) in (phosphate-buffered saline-Tween 20 (PBST) for 1 hr. After staining, the cells were washed twice with PBS. The cover slips were then mounted on a glass slide with anti-fade mounting medium and viewed with an epifluorescence microscope, Leica, DM 5500 B (Leica, Buffalo Grove, Ill., USA) at a magnification of 60×, and data were captured digitally and quantified using the microscope provided software.

The next data set relates to CACO-2 cells. Nature of the data set: SRB cytotoxicity assay, CACO-2. Type of data set: cell-based, human. The conditions noted are these: Homo sapiens, Caco-2, 72 h exposure, ± SEM. The text has this:
(§5) Based on the favorable pharmacologic and physicochemical properties of MOS-1512, it was selected as a new lead for the second subset of compounds (MOS-1812 to MOS-5112). The compounds in this series contained variable groups at R^1 and R^2 that were all tested against the three cancer cell lines (HCT-116, Caco-2 and HT-29).
(§6) Different cell lines were originally purchased from American type culture collection (ATCC, Wesel, Germany) and grown in the tissue culture lab of the Egyptian company for production of vaccines, sera and drugs (Vacsera, Giza, Egypt). The cells were transferred to our laboratory and maintained in the appropriate media as following. HCT-116, CACO-2, and HT-29 (human colon cancer cell lines) were maintained in Roswell Park Memorial Institute medium (RPMI1640) (Invitrogen, Carlsbad, Calif.). The mouse skin fibroblasts (C-166) and Baby Hamster Kidney fibroblasts (BHK) were grown in Dulbecco Modified Eagle's medium (DMEM). Both media were supplemented with 1% of […] of streptomycin, 100 units/mL of penicillin and 10% of heat-inactivated fetal bovine serum (Invitrogen, Carlsbad, Calif.) in a humidified, 5% (v/v) CO2 atmosphere at 37° C.
(§7) The sulforhodamine B (SRB) assays were performed according to Skehan, P.; Storeng, R.; Scudiero, D.; Monks, A.; McMahon, J.; Vistica, D.; Warren, J. T.; Bokesch, H.; Kenney, S.; Boyd, M. R., New colorimetric cytotoxicity assay for anticancer-drug screening. J Natl Cancer Inst 1990, 82 (13), 1107-12, incorporated herein by reference in its entirety. Briefly, exponentially growing cells were trypsinized, counted and seeded at the appropriate densities (5000 cells/100 μL/well) into 96-well microtiter plates. Cells were incubated in a humidified atmosphere at 37° C. for 24 h. Then, the cells were exposed to different compounds at the desired concentrations, (0.01, 0.1, 1, 10, and 100 μM) or to 1% dimethyl sulfoxide (DMSO) for 72 h. At the end of the treatment period, the media were removed, and the cells were fixed with 10% trichloroacetic acid at 4° C. for 1 hr. Following, the cells were washed with tap water four times and incubated with SRB 0.4% for 30 min. Excess dye was removed by washing repeatedly with 1% (vol/vol) acetic acid. The protein-bound dye was dissolved in 10 mM Tris base solution for (optical density) OD determination at 510 nm using a SpectraMax plus Microplate Reader (Molecular Devices, CA). Cell viability was expressed relative to the untreated control cells.
(In SRB staining, fixed cells bind dye roughly in proportion to their protein.)

Another data set concerns HT-29 cells. Nature of the data set: SRB cytotoxicity assay, HT-29. The conditions noted are these: Homo sapiens, HT-29, monolayer, 72 h exposure, ± SEM. Format: cell-based, human.
Description: as §5, §6, §7

Data set [3] has as its system C-166 mouse skin fibroblasts. Nature of the data set: Selectivity versus normal C-166 fibroblasts. Format: cell-based. Conditions: HCT-116, Caco-2 and HT-29 versus C-166. The text has this:
FIG. 3A is a graph illustrating the dose-response curve of compound 1512 on HCT-116 cell lines and C-166 cell line;
See El-Araby, M. E.; Omar, A. M.; Khayat, M. T.; Assiri, H. A.; Al-Abd, A. M., Molecular Mimics of Classic P-Glycoprotein Inhibitors as Multidrug Resistance Suppressors and Their Synergistic Effect on Paclitaxel. PLoS One 2017, 12 (1), e0168938, incorporated herein by reference in its entirety.
Different cell lines were originally purchased from American type culture collection (ATCC, Wesel, Germany) and grown in the tissue culture lab of the Egyptian company for production of vaccines, sera and drugs (Vacsera, Giza, Egypt). The cells were transferred to our laboratory and maintained in the appropriate media as following. […]
The sulforhodamine B (SRB) assays were performed according to Skehan, P.; Storeng, R.; Scudiero, D.; Monks, A.; McMahon, J.; Vistica, D.; Warren, J. T.; Bokesch, H.; Kenney, S.; Boyd, M. R., New colorimetric cytotoxicity assay for anticancer-drug screening. […] Briefly, exponentially growing cells were trypsinized, counted and seeded at the appropriate densities (5000 cells/100 μL/well) into 96-well microtiter plates. […] The protein-bound dye was dissolved in 10 mM Tris base solution for (optical density) OD determination at 510 nm using a SpectraMax plus Microplate Reader (Molecular Devices, CA). […]

Data set [4] has as its system HCT-116 cells. Nature of the data set: SRB cytotoxicity assay, HCT-116. Format: cell-based, human. The conditions noted are these: for IC50: Homo sapiens, HCT-116, SRB assay, 72 h exposure, ± SEM. On the procedure:
Compounds in this study were tested against colorectal cancer cell line HCT-116, using sulforhodamine-B (SRB) assay. See Skehan, P.; Storeng, R.; Scudiero, D.; Monks, A.; McMahon, J.; Vistica, D.; Warren, J. T.; Bokesch, H.; Kenney, S.; Boyd, M. R., New colorimetric cytotoxicity assay for anticancer-drug screening. J Natl Cancer Inst 1990, 82 (13), 1107-12, incorporated herein by reference in its entirety. […] However, it was clear that compounds bearing hydrophobic aliphatic groups such as MOS-1505 and MOS-1512 are clearly favored in providing anticancer activities. […] The N-aryl substituents were less advantageous in both potency and solubility.
as §6, §7

A further data set is described as follows: Solubility profile. Type of data set: physicochemical. Conditions: stated in words together with C log P.
Data set [5] deals with CRC cell lines (HCT-116, Caco-2 and HT-29). Nature of the data set: Cytotoxic activities against CRC cell lines (statement over three lines). Type of data set: cell-based. Conditions: Homo sapiens.
Description: as §5, §6, §7

The test system of data set [6] is HT-29 colon cancer cell spheroids (cancer stem cells). Nature of the data set: Primary (1°) colonosphere formation assay. Format: cell-based, human. The method, then:
Compound 4112 and another potent compound 3712 were also evaluated for their ability to inhibit cancer stem cell proliferation using a primary (1°) colonosphere formation assay. In this assay, HT-29 colon cancer cells were grown in low adhesion plates to form spheres as previously described. See Patel, N. J.; Karuturi, R.; Al-Horani, R. A.; Baranwal, S.; Patel, J.; Desai, U. R.; Patel, B. B., Synthetic, non-saccharide, glycosaminoglycan mimetics selectively target colon cancer stem cells. ACS Chem Biol 2014, 9 (8), 1826-33, incorporated herein by reference in its entirety. Wells treated with the inventive compounds were compared to vehicle treated cells for primary sphere growth inhibition after 5 days of incubation. […] Of note, monolayer growth conditions are ideally suited for examining cellular proliferation, whereas spheroid growth conditions examine cancer stem cell growth and self-renewal properties.
For primary sphere formation, cells were plated in nontreated, low adhesion, 96 wells plate at the concentration of 100 cells/100 μL/well in stem cell media (SCM) that consisted of DMEM:F12:AA (Gibco), supplemented with 1×B27 (Gibco), 20 ng/mL epidermal growth factor, and 10 ng/mL fibroblast growth factor (Sigma). After 4 h of incubation, vehicle (control) or 3712 and 4112 at the desired concentrations were added to each well (at least in triplicates for each sample). On day five, numbers of spheres ranging from […] in diameter were counted using phase contrast microscope and percent inhibition was calculated compared to control.

For `CCCNC(=O)/C(=C/c1ccccc1)NC(=O)/C=C/c1ccccc1` [Compound 1512, (Z)-2-[(E)-cinnamamido]-3-phenyl-N-propylacrylamide], the “GHS acute toxicity category” value in the data set on Swiss albino mice is “Category 5”. In data set [1], the LD50 – broadly, the dose expected to kill half of the subjects tested – at 24 h fell in the range of 2000 to 5000 mg/kg. The “nuclear structure/morphology, DAPI staining” value in the data set with HCT-116 cells [2] is “very strong blue fluorescence; also recorded: nuclear condensation and fragmentation”. The IC50 (commonly the point on the concentration scale where inhibition reaches its midpoint) stood at 38 ± 0.87 µM with CACO-2 cells, 35.5 ± 1.7 µM in the data set with HT-29 cells and 32 ± 2.6 µM with HCT-116 cells [4]. In addition, in data set [3], the “selectivity in killing cancer cells versus normal cells” value is “high selectivity”. Also, the “cancer cell resistance (R-value)” value in the data set with HCT-116 cells [4] (dose-response curve, FIG. 3A) came to 8.2%. The solubility entry in “Solubility profile” was “better solubility profile”.
`CCCNC(=O)/C(=C/c1c[nH]c2ccccc12)NC(=O)C=Cc1ccccc1` [Compound 3712, (Z)-2-cinnamamido-3-(1H-indol-3-yl)-N-propylacrylamide]: the “GHS acute toxicity category” value in the data set on Swiss albino mice is recorded as “Category 5”. The 50% lethal dose (LD50) at 24 h in data set [1] is 2000 to 5000 mg/kg. Moreover, the IC50 in data set [5] was below 5 µM; with CACO-2 cells, 2.1 ± 0.03 µM; with HT-29 cells it was 2.36 ± 0.04 µM; in data set [6] (Homo sapiens, 120 h, HT-29 spheres, 5 days of incubation) it was 21.1 ± 1.3 µM; with HCT-116 cells [4] it was 1.65 ± 0.05 µM. Besides, the “inhibition of colon cancer spheroids formation” value in data set [6] (spheroids >50 μm, 5 days) is reported as “dose-dependent inhibition”.
